A value given as a limit tells only on which side of the number the result lay.

Results on 16 compounds are retold here after patent publication US9029404B2, “Apoptosis-inducing agents for the treatment of cancer and immune and autoimmune diseases” (AbbVie Inc., priority 2008, dated 2015).

This experiment deals with GST-Bcl-2 (Homo sapiens, UniProt P10415). Nature of the experiment: Time Resolved-Fluorescence Resonance Energy Transfer (TR-FRET) Bcl-2 binding assay. The settings on record: competition with F-Bak peptide probe (100 nM); GST-Bcl-2 1 nM; Tb-anti-GST 1 nM; 3 hours at room temperature; Wang's equation. Here is the method: Determination of the utility of compounds having Formula (I) as binders to and inhibitors of anti-apoptotic Bcl-2 proteins was performed using the Time Resolved-Fluorescence Resonance Energy Transfer (TR-FRET) Assay. Tb-anti-GST antibody was purchased from Invitrogen (Catalog No. PV4216).
Sequence of GST-Bcl-2 (P10415 whole entry): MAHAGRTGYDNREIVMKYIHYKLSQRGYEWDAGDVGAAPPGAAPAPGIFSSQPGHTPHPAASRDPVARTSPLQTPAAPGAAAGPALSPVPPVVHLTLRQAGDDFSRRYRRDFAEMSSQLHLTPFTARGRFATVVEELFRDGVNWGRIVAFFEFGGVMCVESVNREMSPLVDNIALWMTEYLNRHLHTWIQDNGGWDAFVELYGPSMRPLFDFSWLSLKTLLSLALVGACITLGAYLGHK
Representative compounds were serially diluted in dimethyl sulfoxide (DMSO) starting at 50 μM (2× starting concentration; 10% DMSO) and 10 μL were transferred into a 384-well plate. The samples are then mixed on a shaker for 1 minute and incubated for an additional 3 hours at room temperature. For each assay, the probe/antibody and protein/probe/antibody were included on each assay plate as negative and positive controls, respectively. Fluorescence was measured on the Envision (Perkin Elmer) using a 340/35 nm excitation filter and 520/525 (F-Bak peptide) and 495/510 nm (Tb-labeled anti-Histidine antibody) emission filters.
The samples were then mixed on a shaker for 1 minute and incubated for an additional 3 hours at room temperature. For each assay, the probe/antibody and protein/probe/antibody were included on each assay plate as negative and positive controls, respectively. Fluorescence was measured on the Envision (Perkin Elmer) using a 340/35 nm excitation filter and 520/525 (F-Bak peptide) and 495/510 nm (Tb-labeled anti-Histidine antibody) emission filters.
The inhibition constant (Ki) is the dissociation constant of an enzyme-inhibitor complex or a protein/small molecule complex, wherein the small molecule is inhibiting binding of one protein to another protein. So a large Ki value indicates a low binding affinity and a small Ki value indicates a high binding affinity.
A general note: TR-FRET usually uses a lanthanide donor and a delayed reading to cut background.
The term Ki denotes a measure of affinity in units of concentration, obtained from inhibition or displacement. Low values mean higher affinity, high ones lower affinity. Turning to `CC1(C)CCC(CN2CCN(c3ccc(C(=O)NS(=O)(=O)c4ccc(NCC5(F)CCOCC5)c([N+](=O)[O-])c4)c(Oc4ccc(F)c5[nH]ncc45)c3)CC2)=C(c2ccc(Cl)cc2)C1` [Example 423, 4-(4-{[2-(4-chlorophenyl)-4,4-dimethylcyclohex-1-en-1-yl]methyl}piperazin-1-yl)-2-[(7-fluoro-1H-indazol-4-yl)oxy]-N-[(4-{[(4-fluorotetrahydro-2H-pyran-4-yl)methyl]amino}-3-nitrophenyl)sulfonyl]benzamide], the Ki is less than 10 pM.

The compound `CC1(C)CCC(CN2CCN(c3ccc(C(=O)NS(=O)(=O)c4ccc(NC[C@H]5CN(C6CC6)CCO5)c([N+](=O)[O-])c4)c(Oc4cnc(N)c(Cl)c4)c3)CC2)=C(c2ccc(Cl)cc2)C1` [Example 442, 2-[(6-amino-5-chloropyridin-3-yl)oxy]-4-(4-{[2-(4-chlorophenyl)-4,4-dimethylcyclohex-1-en-1-yl]methyl}piperazin-1-yl)-N-{[4-({[(2S)-4-cyclopropylmorpholin-2-yl]methyl}amino)-3-nitrophenyl]sulfonyl}benzamide] had a Ki of less than 10 pM.

`CC1(C)CCC(CN2CCN(c3ccc(C(=O)NS(=O)(=O)c4ccc(NCC5CCC6(CC5)COC6)c([N+](=O)[O-])c4)c(Oc4cnc(N)c(Cl)c4)c3)CC2)=C(c2ccc(Cl)cc2)C1` [Example 450, 2-[(6-amino-5-chloropyridin-3-yl)oxy]-4-(4-{[2-(4-chlorophenyl)-4,4-dimethylcyclohex-1-en-1-yl]methyl}piperazin-1-yl)-N-({3-nitro-4-[(2-oxaspiro[3.5]non-7-ylmethyl)amino]phenyl}sulfonyl)benzamide]: the Ki was less than 10 pM.

`CC1(C)CCC(CN2CCN(c3ccc(C(=O)NS(=O)(=O)c4ccc(NCC5CCC(C)(O)CC5)c([N+](=O)[O-])c4)c(Oc4cnc(N)c(Cl)c4)c3)CC2)=C(c2ccc(Cl)cc2)C1` (stereo not drawn) [Example 434, 2-[(6-amino-5-chloropyridin-3-yl)oxy]-4-(4-{[2-(4-chlorophenyl)-4,4-dimethylcyclohex-1-en-1-yl]methyl}piperazin-1-yl)-N-[(4-{[(trans-4-hydroxy-4-methylcyclohexyl)methyl]amino}-3-nitrophenyl)sulfonyl]benzamide]: the Ki was less than 10 pM.

On to `CC1(C)CCC(CN2CCN(c3ccc(C(=O)NS(=O)(=O)c4cnc(OCC5(F)CCOCC5)c(Cl)c4)c(Oc4cc(F)cc5[nH]ncc45)c3)CC2)=C(c2ccc(Cl)cc2)C1` [Example 415, N-({5-chloro-6-[(4-fluorotetrahydro-2H-pyran-4-yl)methoxy]pyridin-3-yl}sulfonyl)-4-(4-{[2-(4-chlorophenyl)-4,4-dimethylcyclohex-1-en-1-yl]methyl}piperazin-1-yl)-2-[(6-fluoro-1H-indazol-4-yl)oxy]benzamide], for which the Ki was found to be 13 pM.

`CO[C@H]1CC[C@H](CNc2ccc(S(=O)(=O)NC(=O)c3ccc(N4CCN(CC5=C(c6ccc(Cl)cc6)CC(C)(C)CC5)CC4)cc3Oc3cccc4[nH]c(=O)n(C)c34)cc2[N+](=O)[O-])CC1` [Example 427, 4-(4-{[2-(4-chlorophenyl)-4,4-dimethylcyclohex-1-en-1-yl]methyl}piperazin-1-yl)-N-[(4-{[(trans-4-methoxycyclohexyl)methyl]amino}-3-nitrophenyl)sulfonyl]-2-[(3-methyl-2-oxo-2,3-dihydro-1H-benzimidazol-4-yl)oxy]benzamide] had an inhibition constant (Ki) of less than 10 pM.

As to `CN1CCC(C)(Nc2ccc(S(=O)(=O)NC(=O)c3ccc(N4CCN(CC5=C(c6ccc(Cl)cc6)CC(C)(C)CC5)CC4)cc3Oc3ccccc3Cl)cc2[N+](=O)[O-])CC1` [Example 168, 2-(2-chlorophenoxy)-4-(4-{[2-(4-chlorophenyl)-4,4-dimethylcyclohex-1-en-1-yl]methyl}piperazin-1-yl)-N-({4-[(1,4-dimethylpiperidin-4-yl)amino]-3-nitrophenyl}sulfonyl)benzamide], the Ki came out at 28300 pM.

`CC1(C)CCC(CN2CCN(c3ccc(C(=O)NS(=O)(=O)c4ccc(NCC5(F)CCOCC5)c([N+](=O)[O-])c4)c(Oc4cccc5[nH]nc(N)c45)c3)CC2)=C(c2ccc(Cl)cc2)C1` [Example 428, 2-[(3-amino-1H-indazol-4-yl)oxy]-4-(4-{[2-(4-chlorophenyl)-4,4-dimethylcyclohex-1-en-1-yl]methyl}piperazin-1-yl)-N-[(4-{[(4-fluorotetrahydro-2H-pyran-4-yl)methyl]amino}-3-nitrophenyl)sulfonyl]benzamide] returned a Ki of less than 10 pM.

As to `CC1(C)CCC(CN2CCN(c3ccc(C(=O)NS(=O)(=O)c4cnc(OCC5(F)CCOCC5)c(Cl)c4)c(Oc4ccc(F)c5[nH]ncc45)c3)CC2)=C(c2ccc(Cl)cc2)C1` [Example 420, N-({5-chloro-6-[(4-fluorotetrahydro-2H-pyran-4-yl)methoxy]pyridin-3-yl}sulfonyl)-4-(4-{[2-(4-chlorophenyl)-4,4-dimethylcyclohex-1-en-1-yl]methyl}piperazin-1-yl)-2-[(7-fluoro-1H-indazol-4-yl)oxy]benzamide], the Ki is less than 10 pM.

Consider `CC1(C)CCC(CN2CCN(c3ccc(C(=O)NS(=O)(=O)c4cnc(OCC5CCC(C)(O)CC5)c(Cl)c4)c(Oc4cccc5[nH]nc(N)c45)c3)CC2)=C(c2ccc(Cl)cc2)C1` (stereo not drawn) [Example 445, 2-[(3-amino-1H-indazol-4-yl)oxy]-N-({5-chloro-6-[(trans-4-hydroxy-4-methylcyclohexyl)methoxy]pyridin-3-yl}sulfonyl)-4-(4-{[2-(4-chlorophenyl)-4,4-dimethylcyclohex-1-en-1-yl]methyl}piperazin-1-yl)benzamide], for which the Ki is less than 10 pM.

With `Cn1c(=O)[nH]c2cccc(Oc3cc(N4CCN(CC5=C(c6ccc(Cl)cc6)CC(C)(C)CC5)CC4)ccc3C(=O)NS(=O)(=O)c3ccc(NCC4CN(C5CC5)CCO4)c([N+](=O)[O-])c3)c21` (stereo not shown) [Example 439, 4-(4-{[2-(4-chlorophenyl)-4,4-dimethylcyclohex-1-en-1-yl]methyl}piperazin-1-yl)-N-[(4-{[(4-cyclopropylmorpholin-2-yl)methyl]amino}-3-nitrophenyl)sulfonyl]-2-[(3-methyl-2-oxo-2,3-dihydro-1H-benzimidazol-4-yl)oxy]benzamide], the Ki was less than 10 pM.

On to `CC1(C)CCC(CN2CCN(c3ccc(C(=O)NS(=O)(=O)c4cnc(OCC5(F)CCC(C)(O)CC5)c(Cl)c4)c(Oc4cnc(N)c(Cl)c4)c3)CC2)=C(c2ccc(Cl)cc2)C1` (stereo not drawn) [Example 444, 2-[(6-amino-5-chloropyridin-3-yl)oxy]-N-({5-chloro-6-[(cis-1-fluoro-4-hydroxy-4-methylcyclohexyl)methoxy]pyridin-3-yl}sulfonyl)-4-(4-{[2-(4-chlorophenyl)-4,4-dimethylcyclohex-1-en-1-yl]methyl}piperazin-1-yl)benzamide], for which the inhibitory constant (Ki) turned out to be 18 pM.

For the compound `Cn1c(=O)[nH]c2cccc(Oc3cc(N4CCN(CC5=C(c6ccc(Cl)cc6)CC(C)(C)CC5)CC4)ccc3C(=O)NS(=O)(=O)c3ccc(OCC4CCOCC4)c(Cl)c3)c21` [Example 438, 4-(4-{[2-(4-chlorophenyl)-4,4-dimethylcyclohex-1-en-1-yl]methyl}piperazin-1-yl)-N-{[3-chloro-4-(tetrahydro-2H-pyran-4-ylmethoxy)phenyl]sulfonyl}-2-[(3-methyl-2-oxo-2,3-dihydro-1H-benzimidazol-4-yl)oxy]benzamide], the Ki was determined as 31 pM.

`CC1(C)CCC(CN2CCN(c3ccc(C(=O)NS(=O)(=O)c4ccc(NCC5(F)CCOCC5)c([N+](=O)[O-])c4)c(Oc4cc(F)cc5[nH]ncc45)c3)CC2)=C(c2ccc(Cl)cc2)C1` [Example 418, 4-(4-{[2-(4-chlorophenyl)-4,4-dimethylcyclohex-1-en-1-yl]methyl}piperazin-1-yl)-2-[(6-fluoro-1H-indazol-4-yl)oxy]-N-[(4-{[(4-fluorotetrahydro-2H-pyran-4-yl)methyl]amino}-3-nitrophenyl)sulfonyl]benzamide] returned a Ki of less than 10 pM.

As for `CC1(C)CCC(CN2CCN(c3ccc(C(=O)NS(=O)(=O)c4ccc(OCC5(F)CCOCC5)c([N+](=O)[O-])c4)c(Oc4cc(F)cc5[nH]ncc45)c3)CC2)=C(c2ccc(Cl)cc2)C1` [Example 433, 4-(4-{[2-(4-chlorophenyl)-4,4-dimethylcyclohex-1-en-1-yl]methyl}piperazin-1-yl)-2-[(6-fluoro-1H-indazol-4-yl)oxy]-N-({4-[(4-fluorotetrahydro-2H-pyran-4-yl)methoxy]-3-nitrophenyl}sulfonyl)benzamide], the Ki is less than 10 pM.

On to `CO[C@H]1CC[C@H](CNc2ccc(S(=O)(=O)NC(=O)c3ccc(N4CCN(CC5=C(c6ccc(Cl)cc6)CC(C)(C)CC5)CC4)cc3Oc3cccc4[nH]nc(N)c34)cc2[N+](=O)[O-])CC1` [Example 435, 2-[(3-amino-1H-indazol-4-yl)oxy]-4-(4-{[2-(4-chlorophenyl)-4,4-dimethylcyclohex-1-en-1-yl]methyl}piperazin-1-yl)-N-[(4-{[(trans-4-methoxycyclohexyl)methyl]amino}-3-nitrophenyl)sulfonyl]benzamide], for which the affinity, expressed as Ki, was 10 pM.
